Assays:
Type in all cases: in vivo
C57BL/6 mice = assay: Alloxan induction of diabetes, blood glucose levels by day 28; settings: one i.v. dose Alloxan 70 mg/kg, day 28, n=222
Protocol: 8-week-old female mice were I.V. injected with β cell toxin Alloxan (Sigma) at 70 mg/kg body weight. Tail vein blood glucose was measured daily or twice a week with Precision Xtra Glucose Meter (Abbott Diabetes Care Inc.) with a maximum reading of 500 mg/dL Tamoxifen (TM, Sigma) was prepared at 20 mg/mL in corn oil (Sigma). For tracing studies in adult mice, a total of 20 mg of TM was given […] in five doses (each 4 mg) over a 2-week period. Mice rendered diabetic (>300 mg/dL) over a period of 28 days were used in subsequent experiments.
This example investigates whether Sox9^+ pancreatic ductal cells could give rise to insulin-producing β cells in adult diabetic mice after GE treatment, using non-autoimmune Sox9^CreERT2R26^mT/mG C57BL/6 mice. First, a β cell neogenesis mouse model in non-autoimmune diabetic C57BL/6 mice was established. 8 week-old adult female C57BL/6 mice were induced to develop diabetes by one intravenous injection of Alloxan (70 mg/kg body weight) as previously described (14, 27). Mice developed variable levels of hyperglycemia, including mild (<300 mg/dL), medium (300-450 mg/dL) and high hyperglycemia (>450 mg/dL). C57BL/6 mice (n=222) were induced to render diabetic by intravenously injecting one dose of Alloxan (70 mg/kg body weight) at day 0. Blood glucose (BG) concentrations in mice were measured twice a week for 4 weeks.

[1] = test system: pre-existing insulin-producing β cells; assay: Lineage tracing of pre-existing β cells in Ins1CreERT R26mT/mG mice, long-term low-dose GE; settings: non-diabetic Ins1CreERT R26mT/mG mice, TM 20 mg in five doses over 2 weeks
Protocol: 8 weeks old female Ins1^CreERTR26^mT/mG mice were first given I.P. injection of Tamoxifen™ every two days over a 2-week period to induce EGFP expression and label the pre-existing β cells. Thereafter, mice were induced to develop diabetes with Alloxan, and mice with medium or high hyperglycemia were treated with GE or PBS control. At the end of the experiments, the pancreases were harvested and stained for insulin and EGFP, and merged staining was also shown. Nuclei were labeled by DAPI. The percentage of EGFP^+Ins^+ cells amongst total Insulin^+ cells was calculated. Normal non-diabetic mice were used as a control for checking EGFP labeling efficiency.
(§1) 8-week-old female mice were I.V. injected with β cell toxin Alloxan (Sigma) at 70 mg/kg body weight. Tail vein blood glucose was measured daily or twice a week with Precision Xtra Glucose Meter (Abbott Diabetes Care Inc.) with a maximum reading of 500 mg/dL Tamoxifen (TM, Sigma) was prepared at 20 mg/mL in corn oil (Sigma). […]
Percentage of EGFP^+Sox9^+ cells was determined by the number of EGFP^+Sox9^+ cells divided by the total number of Sox9^+ cells. Cells were counted in ten random fields of view of a tissue section. […] To quantify Sox9/EGFP^+Ins^+ cells among ductal tubes, all Sox9/EGFP^+ ductal cells co-expressing insulin in ducts were counted on a section. […] Average count of each mouse was calculated. […]

[2] = test system: Sox9+ pancreatic ductal cells; assay: Lineage tracing of Sox9+ ductal cells in Sox9CreERT2 R26mT/mG mice, long-term low-dose GE (islets); settings: Sox9CreERT2 R26mT/mG C57BL/6 mice, TM 20 mg in five doses over 2 weeks
Protocol: 8 weeks old female Sox9^CreERT2 R26^mT/mG mice were first injected with Tamoxifen™ to label the Sox9/EGFP^+ cells, then the mice were induced to develop diabetes and treated with PBS or GE and monitored as described in FIG. 2A. At the end of experiments, pancreases were stained for Insulin and EGFP, and merged staining was also shown.
as §1
Percentage of EGFP^+Sox9^+ cells was determined by the number of EGFP^+Sox9^+ cells divided by the total number of Sox9^+ cells. Cells were counted in ten random fields of view of a tissue section. To quantify the number of lineage-labeled Insulin^+ cells, all Insulin^+ cells and Ins/EGFP^+Ins^+ cells on a section were counted, and then the percentage of Ins/EGFP^+Ins^+ cells amongst total Insulin^+ cells was determined. To quantify the number of lineage-labeled Insulin^+ cells arising from Sox9^+ cells, all Insulin^+ cells and Sox9/EGFP^+Ins^+ cells on a section were counted, and then the percentage of Sox9/EGFP^+Ins^+ cells among total Insulin^+ cells was determined. […] Average count of each mouse was calculated. […]

Row | Structure (SMILES) | Mouse No. with high hyperglycemia (BG ≥ 450 mg/dL) (C57BL/6 mice) | Mouse No. with medium hyperglycemia (300 ≤ BG < 450 mg/dL) (C57BL/6 mice) | Mouse No. with mild hyperglycemia (BG < 300 mg/dL) (C57BL/6 mice) | Percentage of mice with high hyperglycemia (BG ≥ 450 mg/dL) (C57BL/6 mice) [%] | Percentage of mice with medium hyperglycemia (300 ≤ BG < 450 mg/dL) (C57BL/6 mice) [%] | Percentage of mice with mild hyperglycemia (BG < 300 mg/dL) (C57BL/6 mice) [%] | Pre-existing β cells in the islets labeled with EGFP [1] | Pancreatic Sox9-expression ductal epithelial cells labeled with EGFP [2]
1 | O=C1NC(=O)C(=O)C(=O)N1 [Alloxan] | 83 | 101 | 38 | 38 | 45 | 17 | – | –
2 | CC/C(=C(\c1ccccc1)c1ccc(OCCN(C)C)cc1)c1ccccc1 [TM, Tamoxifen] | – | – | – | – | – | – | more than 90% | over 90%
